From BindingDB's records for doi:10.1016/j.bmcl.2014.07.074 (Riken-Max Planck Joint Research Center For Systems Chemical …, 2014) come the findings set out here.

Assay [1] in a line: Inhibition of human N-terminally His6-tagged N-acetylglucosaminyltransferase 3 expressed in HEK293T cells assessed as GN-GnGnbi-PAs molar ratio level incubated for 1 hr using 2.5 to 10 uM GnGnbi-PA acceptor substrate and 20 mM UDP-GlcNAc donor substrate by reverse phase HPLC method.
A short description of assay [2]: Inhibition of human N-terminally His6-tagged N-acetylglucosaminyltransferase 3 expressed in HEK293T cells assessed as GN-GnGnbi-PAs molar ratio level incubated for 1 hr using 5 uM GnGnbi-PA acceptor substrate and 0.5 to 4 mM UDP-GlcNAc donor substrate by reverse phase HPLC method.

As a reminder, the Ki is a dissociation constant, usually derived from enzyme kinetics or from competition with a known ligand. In the case of `CO[C@H]1O[C@H](CO[C@H]2O[C@H](CO)[C@@H](O)[C@H](O)[C@@H]2O[C@@H]2O[C@H](CO)[C@@H](O)[C@H](O)[C@H]2NC(C)=O)[C@@H](O)[C@H](O[C@H]2O[C@H](CO)[C@@H](O)[C@H](O)[C@@H]2O[C@@H]2O[C@H](CO)[C@@H](O)[C@H](O)[C@H]2NC(C)=O)[C@@H]1O`, the Ki in assay [1] was found to be 1200 µM; in assay [2], 1400 µM.

As to `CO[C@H]1O[C@H](CO[C@H]2O[C@H](CO)[C@@H](O)[C@H](O)[C@@H]2O[C@@H]2O[C@H](CO)[C@@H](O)[C@H](O)[C@H]2NC(C)=O)[C@@H](O[C@@H]2O[C@H](CO)[C@@H](O)[C@H](O)[C@H]2NC(C)=O)[C@H](O[C@H]2O[C@H](CO)[C@@H](O)[C@H](O)[C@@H]2O[C@@H]2O[C@H](CO)[C@@H](O)[C@H](O)[C@H]2NC(C)=O)[C@@H]1O`, the Ki in assay [1] was 14000 µM; in assay [2], 1500 µM.
